Assay results as given in US20220290237A1, “METHOD FOR PREDICTING THE RESPONSE OF ANTIPSYCHOTIC DRUGS” (INSERM (INSTITUT NATIONAL DE LA SANTÉ ET DE LA RECHERCHE …, priority 2019, published 2022).

Columns and labels:
[1] = tested on: total RNA from blood samples; test: qRT-PCR replication of expression changes after amisulpride treatment in 24 independent subjects; type: in vivo, human; conditions: 4 weeks amisulpride
Procedure: Total RNA was extracted from blood samples, collected in PAXgene Blood RNA tubes, with the PAXgene Blood miRNA Kit (QIAGEN GmbH, Hilden, Germany) using a standard protocol on QlAcube robot (QIAGEN). A DNase digestion procedure was added after extraction. Total RNA was purified using the RNA Clean & Concentrator™-5 kit following the manufacturer's instructions (Zymo Research Corp., Irvine, USA). RNA quantification was performed on a NanoDrop™ 8000 spectrophotometer, in duplicate. The quality and integrity of the RNA samples were assessed using an Agilent Bioanalyzer 2100 and the RNA6000 Nano Labchip kit (Agilent Technologies). Only samples with an RNA integrity number (RIN) higher than 7 were selected. Three hundred and seventy-six RNA samples fulfilled quality control criteria for RNA-seq analyses, corresponding to two RNA samples (one at inclusion and one after 4 weeks of treatment) for 188 subjects. Forty-eight additional RNAs were available for replication studies, in 24 independent subjects.
Five-hundred nanograms of total RNA was reverse-transcribed using the High-Capacity cDNA Reverse Transcription kit following standard protocol (Thermo Fisher Scientific, Waltham, Mass., U.S.A.). Mixtures of the cDNAs and the TaqMan Universal PCR Master Mix were further loaded in the 384-well low density TaqMan array microfluidic cards (Thermo Fisher Scientific). Real-time PCR reactions were then carried out in an ABI Prism 7900HT sequence detection system (Thermo Fisher Scientific) using manufacturer's instructions. Each assay was carried out in duplicate and threshold cycle (Ct) values were automatically calculated by the SDS 2.2 software (Thermo Fisher Scientific), after having manually set the analysis threshold. Two reference genes (18S, and GUSB) with various expression levels were included in the analyses to perform a relative RNA quantification, using the most suitable reference gene.
For the qRT-PCR analysis, ΔCt values of each gene of interest were calculated before and after treatment and then normalized by subtracting the ΔCt values of the reference gene to generate ΔΔCt values. To select genes with significant expression changes after treatment, the medians of fold changes (2-ΔΔCt) were subsequently compared to a reference (Me=1) using Wilcoxon Rank Sum Test, and an adjusted p-values below 0.1 was considered to be significant.
To validate these DEGs, we used qRT-PCR in 24 independent subjects from the OPTiMiSE cohort, who were not included in the RNA-seq analyses and with a more than 20% improvement in total PANSS score after treatment (FIG. 1). We selected only brain-expressed protein-coding genes that were differentially expressed after treatment in good responders only. In addition, we restricted our selection to genes for which the expression change was correlated with symptom improvement (Table 1). […] In addition, two genes (P4HA2 and TRPC6) were removed from replication studies, because they were not detectable by qRT-PCR. Eleven genes were thus tested in the replication sample.

[2] = Clinical response (total PANSS score change) over 4 weeks of amisulpride, OPTiMiSE first episode psychosis; type: in vivo, human
Text: The cohort analysed in this study was obtained from the OPTiMiSE clinical trial (http://www.optimisetrial.eu) (29). After providing written informed consent, 491 patients with a first episode psychosis were included and 453 started medication. All patients were diagnosed with schizophrenia, schizophreniform disorder or schizoaffective disorder according to the Diagnostic and Statistical Manual of Mental Disorders, Fourth Edition (DSM-IV) and confirmed on the basis of the Mini International Neuropsychiatric Interview Plus (M.I.N.I. Plus) (30) (table 4). At baseline, patients were medication-naïve or minimally-treated (any antipsychotic medication used for […] 2 weeks in the previous year or for a total of 6 weeks in their lifetime) and were ill for no longer than 2 years. Only subjects involved in the single-treatment arm (phase 1) of the trial were considered for this study (29). All patients were treated for 4 weeks with amisulpride (200-800 mg/day orally). At the end of the 4-week treatment, the blood concentration of antipsychotic used has been determined. This measurement provided a reliable indication of the treatment compliance of individual patients.
A clinical response to treatment can be defined according to many criteria. […] Note that good responders were slightly older than poor responders with a lower duration of untreated psychosis and more positive symptoms (data not shown).

[3] = admixture model of total PANSS score change over 4 weeks of treatment, 200-800 mg/day orally
[4] = of 188 subjects, 4 weeks of treatment

CCN1CCCC1CNC(=O)c1cc(S(=O)(=O)CC)c(N)cc1OC (centres unmarked) [amisulpride, 4-amino-N-((1-ethyl-2-pyrrolidinyl)methyl)-5-(etgylsulfonyl)-2-methoxybenzamide]
FC, fold-change at week 4 relative to the expression level at inclusion: ACSL5 ([1]; ACSL5, replication sample (n = 24)): 1.06
FC, fold-change at week 4 relative to the expression level at inclusion: ALPL ([1]; ALPL, replication sample (n = 24)): 0.77
FC, fold-change at week 4 relative to the expression level at inclusion: CA4 ([1]; CA4, replication sample (n = 24)): 0.71
FC, fold-change at week 4 relative to the expression level at inclusion: DGAT2 ([1]; DGAT2, replication sample (n = 24)): 0.73
FC, fold-change at week 4 relative to the expression level at inclusion: DHRS13 ([1]; DHRS13, replication sample (n = 24)): 0.82
FC, fold-change at week 4 relative to the expression level at inclusion: GALNT14 ([1]; GALNT14, replication sample (n = 24)): 0.76
FC, fold-change at week 4 relative to the expression level at inclusion: HOMER3 ([1]; HOMER3, replication sample (n = 24)): 0.84
FC, fold-change at week 4 relative to the expression level at inclusion: KAZN ([1]; KAZN, replication sample (n = 24)): 0.67
FC, fold-change at week 4 relative to the expression level at inclusion: KIAA0319 ([1]; KIAA0319, replication sample (n = 24)): 0.77
FC, fold-change at week 4 relative to the expression level at inclusion: SLC4A4 ([1]; SLC4A4, replication sample (n = 24)): 0.84
FC, fold-change at week 4 relative to the expression level at inclusion: WLS ([1]; WLS, replication sample (n = 24)): 0.85
proportion of good responders [2, 3]: 56%
proportion of poor responders [2, 3]: 44%
mean reduction of total PANSS score ([2]; good responders subpopulation of the admixture model, 4 weeks of treatment): 36.3%
patients with a less than 20% reduction in total PANSS score [2, 4]: 75 patients
patients with a more than 20% reduction in total PANSS score [2, 4]: 113 patients
mean PANSS total reduction ([2]; poor responders subpopulation of the admixture model, 4 weeks of treatment): 13.0%
